Laboratory results reported in US20070213366A1, “Treatment of Synucleinopathies” (priority 2005, published 2007).
“Also recorded” adds a separate entry of the source.

Key:
[1] = tested on: primary dopaminergic cultures; test: α-synuclein toxicity in primary dopaminergic cultures; assay type: cell-based
α-synuclein [2] = test: α-synuclein degradation/accumulation assay in COS-7 cells; assay type: cell-based
Text: Plasmids: C220S cDNA was generated by PCR site-specific mutagenesis. For the PCR, the 5′ primer is uchforw SEQ ID NO: 1 ([…]), and 3′ primer is uchc220s SEQ ID NO:2 (CTAAGA […]). Wt UCH-L1 served as the template. The PCR fragment was inserted into pcDNA vector. For S 18YC220S mutant, S18Y UCH-L1 served as the template in PCR. For the FLAG tagged UCH-L1, the 5′ primer is FLAGuchforw SEQ ID NO: 3 ([…] CGATGGAG), and the 3′ primer is uchrev SEQ ID NO: 4 ([…]). Wt UCH-L1 or C220S served as the template. PCR fragment was purified and inserted into pcDNA vector. For the FLAG tagged UCH-L3, the 5′ primer is L3HindIII SEQ ID NO: 5 (CTAAAGCTTATGGACTAC […]), the 3′primer is L3XhoISAA SEQ ID NO: 6 ([…]). For the UCH-L3 CKAA variant, the 5′ primer is L3 HindIII and the 3′ primer is L3XhoICKAA SEQ ID NO: 7 ([…]). α-synuclein degradation assay: Lipofectamine 2000 was used to transfect COS-7 cells according to the Invitrogen protocol. Transfected cells were cultured at 37° C. for 48 hours before being treated with 35 μM lactacystin or DMSO. After 24 hours of incubation, the cells were lysed with Tris buffer (50 mM Tris, 2% SDS, 0.1% NP-40), and subjected to SDS-PAGE, followed by quantitative Western blotting.
In order to isolate the latter possibility, a mutant form of UCH-L3 was constructed in which the UCH-L1 farnesylation sequence was added to the UCH-L3 C-terminus. […]

α-synuclein [3] = test: Western blot of α-synuclein in SH-SY5Y cells infected with α-synuclein-expressing adenovirus; assay type: cell-based; conditions: normalized against actin
Procedure: (§1) Western Blotting: Following transfer of SDS gels onto NC membrane, all membranes were blocked with 5% non-fat milk in TBST (50 mM Tris-HCl pH7.4, 150 mM NaCl, 0.1% Tween 20), and incubated with primary antibody overnight with 1% BSA in TBST, washed three times with TBST, and incubated with horseradish peroxidase-conjugated secondary antibody for 1 hour (Promega). Bound antibodies were detected using enhanced chemiluminascence (NEM).
Since α-synuclein neurotoxicity is dose-dependent, it follows that accumulation of α-synuclein, caused by UCH-L1 farnesylation, should promote its toxicity. […] These cells express high endogenous levels of UCH-L1. […] The unit of y-axis is 10^5/ml. (F) Cell viability was assessed by the amount of metabolic activity using MTT assay. […] The effect of FTI-277 on the α-synuclein accumulation in the SH-SY5Y infected with α-synuclein-expressing adenovirus were analyzed by Western blotting (B) and the amount of α-synuclein (C) was quantified using NIH Image program and normalized against the amount of actin.

UCH-L1 [4] = test: 2D electrophoresis and Western blot of membrane-bound and cytosolic UCH-L1 in SH-SY5Y cells; assay type: cell-based; conditions: compared to DMSO
Procedure: Membrane fractionation: Cells were harvested by scraping and washed with PBS. Cell pellet was suspended in lysis buffer (50 mM Tris-HCl, 1 mM EDTA) supplemented with protease inhibitor cocktail (Sigma) and homogenized by passing through 26G needles 10 times. Suspension was clarified by spinning at 600 g for 5 minutes. Clarified suspension was ultracentrifuged at 100,000 g for 2 hours and separated into membrane and cytosol. Membrane fraction washed with washing buffer (50 mM Tris-HCl, 1 mM EDTA 1 M NaCl), and pelleted each time with bench-top centrifuge.
2D electrophoresis: For the isolation of total cellular protein, cultured SH-SY5Y cells maintained as described above were rinsed with ice-cold PBS. Cells were lysed in 1 ml dSDS buffer (50 mM Tris-HCl, pH 8.0 0.1% SDS) supplemented with protease inhibitor cocktail. Lysates were boiled for 3 min, and were treated with Dnase and Rnase as described. […]
as §1, with “(NEM). […]” for “(NEM).”

UCH-L1 [5] = test: Total amount and turnover (pulse-chase) of UCH-L1 in SH-SY5Y cells; assay type: cell-based
[6] = tested on: SH-SY5Y cells overexpressing α-synuclein; test: Viability (Trypan blue, MTT) of SH-SY5Y cells infected by α-synuclein-expressing adenovirus; assay type: cell-based
Procedure: Viral Infection: Viral infection and MTT assay in SH-SY5Y cells: The viruses were amplified and purified according to the published procedure. SH-SY5Y cells were grown on 100 mm petri-dishes and induced with 100 nM retinoic acid for 3-5 days before the virus infection with M.I.O at 75. Viruses were diluted with DPBS to desired M.I.O. After four hours of incubation, 10 ml growth medium was added. On the second day, cells were splitted into 96-well plates and treated with compounds for next 48 hours. The growth medium in each well was replaced with growth medium with 5 ug/ml MTT. Medium was removed after three hours incubation, and 200 ul isopropyl (0.04N HCl) was added into each well. The signal was read at 570 nm.
Viable cell counting: At stated time poins, SH-SY5Y cells were trypsinized with 100 ul trypsin-EDTA for 1 minute and neutralized with 400 ul growth medium. Cell suspension was made up by mixing 0.2 ml of cells in growth medium, 0.3 ml of HBSS and 0.5 ml of 0.4% Trypan Blue solution. Viable cell numbers were counted by standard cell counting chamber.
Since α-synuclein neurotoxicity is dose-dependent, it follows that accumulation of α-synuclein, caused by UCH-L1 farnesylation, should promote its toxicity. […] These cells express high endogenous levels of UCH-L1. […] The unit of y-axis is 10^5/ml. (F) Cell viability was assessed by the amount of metabolic activity using MTT assay. […]

farnesylated UCH-L1 = test: Quantitative Western blot of farnesylated UCH-L1 in cortex membrane fraction of α-synuclein transgenic mice; assay type: in vivo
Procedure: (§2) Farnesyl transferase inhibitors Zarnestra and OSI-754 were administered to mice of the α-synuclein transgenic line described in Masliah et al. (Masliah et al. “Dopaminergic loss and inclusion body formation in alphα-synuclein mice: implications for neurodegenerative disorders” Science 287(5456): 1265-69, 2000; incorporated herein by reference). Animals from this line have α-synuclein neuronal inclusions in the cortex, hippocampus, and the olfactory bulb (Masliah et al. “Dopaminergic loss and inclusion body formation in alphα-synuclein mice: implications for neurodegenerative disorders” Science 287(5456): 1265-69, 2000; incorporated herein by reference). Transgenic mice were orally administered either FTI in 20% cyclodextrin solution or the same volume of vehicle alone twice a day for 30 or 90 days. […]
(§3) Treatment with 35 mg/kg Zarnestra twice a day for 30 days decreased levels of α-synuclein protein in the cortex and the amount of farnesylated UCH-L1 in the cortex of transgenic mice. Total α-synuclein levels were analyzed by a sandwich ELISA assay similar to one previously described (El-Agnaf et al. “Detection of oligomeric forms of alphα-synuclein protein in human plasma as a potential biomarker for Parkinson's disease” FASEB J. 20(3):419-25, 2006; incorporated herein by reference). […] The amount of UCH-L1 was determined by quantitative Western Blot. […]

α-synuclein [7] = test: Sandwich ELISA of total α-synuclein in cortex fractions of α-synuclein transgenic mice; assay type: in vivo; conditions: 45 mg/kg twice a day for 30 days, vs vehicle-treated transgenic mice
Procedure: as §2, §3

human α-synuclein = test: Immunostaining of α-synuclein inclusions in cortex and hippocampus of α-synuclein transgenic mice; assay type: in vivo
Procedure: Farnesyl transferase inhibitors Zarnestra and OSI-754 were administered to mice of the α-synuclein transgenic line described in Masliah et al. (Masliah et al. “Dopaminergic loss and inclusion body formation in alphα-synuclein mice: implications for neurodegenerative disorders” Science 287(5456): 1265-69, 2000; incorporated herein by reference). Animals from this line have α-synuclein neuronal inclusions in the cortex, hippocampus, and the olfactory bulb (Masliah et al. “Dopaminergic loss and inclusion body formation in alphα-synuclein mice: implications for neurodegenerative disorders” Science 287(5456): 1265-69, 2000; incorporated herein by reference). Transgenic mice were orally administered either FTI in 20% cyclodextrin solution or the same volume of vehicle alone twice a day for 30 or 90 days. In some cases, non-transgenic mice also received vehicle twice a day for 30 to 90 days. At the end of treatment, mice were sacrificed, and the brains removed and hemisected. One hemisphere of each was fixed in 4% paraformaldehyde/PBS (pH 7.4), cryoperserved, then sectioned for histology. The other hemisphere was subdivided into four brain regions, including the cortex and hippocampus, that were homogenized and processed into cytoplasmic and membrane fractions.
Formation of α-synuclein inclusions in the cortex and hippocampus was probed by immunostaining with an antibody for full-length human α-synuclein. Cells positive for human α-synuclein were quantified. […] These regions were also analyzed for ubiquitin-immunoreactive inclusions and by the Campbell Switzer method of silver staining. Ubiquitin is known to be a constituent of Lewy Bodies and in the α-synculein inclusions found in the transgenic mouse line used in the study (Masliah et al. “Dopaminergic loss and inclusion body formation in alphα-synuclein mice: implications for neurodegenerative disorders” Science 287(5456): 1265-69, 2000; incorporated herein by reference). […] Campbell-Switzer staining is a general marker of Lewy Body type inclusions (Uchihara et al. “Silver stainings distinguish Lewy bodies and glial cytoplasmic inclusions: comparison between Gallyas-Braak and Campbell-Switzer methods” Acta Neuropathol. (Berl) 110(3):255-60, 2005; incorporated herein by reference).
(§4) Formation of α-synuclein inclusions in the cortex and hippocampus was probed by immunostaining with an antibody for full-length human α-synuclein. Cells positive for human α-synuclein were quantified.

[8] = tested on: Lewy body-like inclusions; test: Campbell Switzer silver staining of Lewy body-like inclusions in α-synuclein transgenic mice; assay type: in vivo; conditions: 35 mg/kg twice a day for 30 days, vs vehicle
Procedure: (§5) Farnesyl transferase inhibitors Zarnestra and OSI-754 were administered to mice of the α-synuclein transgenic line described in Masliah et al. (Masliah et al. “Dopaminergic loss and inclusion body formation in alphα-synuclein mice: implications for neurodegenerative disorders” Science 287(5456): 1265-69, 2000; incorporated herein by reference). Animals from this line have α-synuclein neuronal inclusions in the cortex, hippocampus, and the olfactory bulb (Masliah et al. “Dopaminergic loss and inclusion body formation in alphα-synuclein mice: implications for neurodegenerative disorders” Science 287(5456): 1265-69, 2000; incorporated herein by reference). Transgenic mice were orally administered either FTI in 20% cyclodextrin solution or the same volume of vehicle alone twice a day for 30 or 90 days. In some cases, non-transgenic mice also received vehicle twice a day for 30 to 90 days. At the end of treatment, mice were sacrificed, and the brains removed and hemisected. […]
as §4, with “quantified. […] These regions were also analyzed for ubiquitin-immunoreactive inclusions and by the Campbell Switzer method of silver staining. […]” for “quantified.”

[9] = tested on: ubiquitin-immunoreactive inclusions; test: Ubiquitin immunohistochemistry in α-synuclein transgenic mice; assay type: in vivo; conditions: 35 mg/kg twice a day for 30 days, vs vehicle
Procedure: as §5
as §4, with “quantified. […] These regions were also analyzed for ubiquitin-immunoreactive inclusions and by the Campbell Switzer method of silver staining. […]” for “quantified.”

[10] = 9 mg/kg twice a day for 90 days, vs vehicle
[11] = 45 mg/kg twice a day for 90 days, vs vehicle
[12] = 35 mg/kg twice a day for 30 days, vs vehicle

Q: For COC(=O)[C@H](CCSC)NC(=O)c1ccc(NC[C@@H](N)CS)cc1-c1ccccc1 [FTI-277], which α-synuclein toxicity [1] is on record?
A: inhibit α-synuclein toxicity

Q: What about the synuclein level (α-synuclein [2]; COS-7 cells) of the same compound?
A: lowers synuclein level

Q: And the “amount of α-synuclein” value (α-synuclein [3])?
A: reducing the amount of α-synuclein accumulation; also recorded: reduced the amount of α-synuclein

Q: What about the “amount of cytosolic UCH-L1” value (UCH-L1 [4]) of the same compound?
A: without affecting

Q: What about the “amount of membrane bound UCH-L1” value (UCH-L1 [4]) of the same compound?
A: significant decrease; also recorded: decreased the amount of the membrane-associated species; also recorded: reducing the amount of membrane-associated protein

Q: And the “total amount of UCH-L1” value (UCH-L1 [5])?
A: reduced the total amount of UCH-L1

Q: And the “rate of turnover of UCH-L1” value (UCH-L1 [5]; pulse-chase experiment not shown)?
A: increased its rate of turnover

Q: What about the “α-synuclein toxicity / loss of cells” value ([6]; SH-SY5Y cells overexpressing α-synuclein via adenovirus, compared to DMSO) of the same compound?
A: inhibits synuclein toxicity; also recorded: rescued α-synuclein toxicity; also recorded: significantly decreased loss of cells

Q: What about the “neuroprotective effect of FTI-277 on co-administration of the small-molecule UCH-L1 inhibitor” value ([6]; SH-SY5Y cells overexpressing α-synuclein, not shown) of the same compound?
A: eliminated

Q: How did the “accumulation of α-synuclein” value (α-synuclein [2]; transfected COS-7 cells, 16 kDa α-synuclein normalized against actin, sets the scale) turn out when CC(=O)N[C@@H](CSC(=O)[C@]1([C@@H](O)C(C)C)NC(=O)[C@H](C)[C@@H]1O)C(=O)O [lactacystin] was run?
A: 100%

Q: Which results are given for C#Cc1cccc(-c2cc(=O)n(C)c3ccc(C(O)(c4ccc(Cl)cc4)c4cncn4C)cc23)c1 (stereo not shown) [OSI-754]?
A: amount of farnesylated UCH-L1 in the cortex (farnesylated UCH-L1; 45 mg/kg twice a day for 30 days, normalized to actin): decreased the amount of farnesylated UCH-L1; α-synuclein protein levels, cortex cytoplasmic fraction (α-synuclein [7]): lower α-synuclein protein levels; α-synuclein protein levels, cortex membrane fraction (α-synuclein [7]): lower α-synuclein protein levels; inclusions vs vehicle (human α-synuclein; 9 mg/kg twice a day for 90 days): fewer inclusions; α-synuclein-positive cells per mm^2, cortex (human α-synuclein; [10]): fewer α-synuclein-positive cells; α-synuclein-positive cells per mm^2, hippocampus (human α-synuclein; [10]): fewer α-synuclein-positive cells; inclusions vs vehicle (human α-synuclein; 45 mg/kg twice a day for 90 days): fewer inclusions; α-synuclein-positive cells per mm^2, cortex (human α-synuclein; [11]): fewer α-synuclein-positive cells; α-synuclein-positive cells per mm^2, hippocampus (human α-synuclein; [11]): fewer α-synuclein-positive cells

Q: With Cn1cncc1[C@@](N)(c1ccc(Cl)cc1)c1ccc2c(c1)c(-c1cccc(Cl)c1)cc(=O)n2C [Zarnestra] as the compound, how does the “amount of farnesylated UCH-L1 in the cortex” value (farnesylated UCH-L1; 35 mg/kg twice a day for 30 days, membrane fraction) read?
A: decreased the amount of farnesylated UCH-L1 in transgenic mice to levels similar to non-transgenic mice

Q: And the Campbell-Switzer stained inclusions [8]?
A: fewer inclusions

Q: And the ubiquitin-immunoreactive inclusions [9]?
A: fewer ubiquitin-immuoreactive inclusions

Q: What about the “α-synuclein-positive cells per mm, cortex” value (human α-synuclein; [12]) of the same compound?
A: significantly fewer

Q: And the “α-synuclein-positive cells per mm, hippocampus” value (human α-synuclein; [12])?
A: significantly fewer

Q: What about the inclusions vs vehicle (human α-synuclein; transgenic mice, 35 mg/kg orally twice a day for 30 days) of the same compound?
A: fewer inclusions
